From ChEMBL document CHEMBL4145544, “Discovery and optimization of 1-(1H-indol-1-yl)ethanone derivatives as CBP/EP300 bromodomain inhibitors for the treatment of castration-resistant prostate cancer” (Eur J Med Chem, 2018)
Calls of active or inactive are those of the source. The rule behind the calls is not given here.

Experiments:
[1] = biological target: T1, Histone acetyltransferase KAT2B (Homo sapiens, UniProt Q92831); assay: Inhibition of biotinylated-H4KAc4 binding to human His6-tagged PCAF (G715 to D831 residues) expressed in Escherichia coli BL21(DE3) after 2.5 hrs by luminescence-based AlphaScreen assay
[2] = biological target: T2, Bromodomain-containing protein 9 (Homo sapiens, UniProt Q9H8M2); assay: Inhibition of biotinylated-H4KAc4 binding to human His6-tagged BRD9 (L14 to Q134 residues) expressed in Escherichia coli BL21(DE3) after 2.5 hrs by luminescence-based AlphaScreen assay
T2 sequence (Q9H8M2 whole entry): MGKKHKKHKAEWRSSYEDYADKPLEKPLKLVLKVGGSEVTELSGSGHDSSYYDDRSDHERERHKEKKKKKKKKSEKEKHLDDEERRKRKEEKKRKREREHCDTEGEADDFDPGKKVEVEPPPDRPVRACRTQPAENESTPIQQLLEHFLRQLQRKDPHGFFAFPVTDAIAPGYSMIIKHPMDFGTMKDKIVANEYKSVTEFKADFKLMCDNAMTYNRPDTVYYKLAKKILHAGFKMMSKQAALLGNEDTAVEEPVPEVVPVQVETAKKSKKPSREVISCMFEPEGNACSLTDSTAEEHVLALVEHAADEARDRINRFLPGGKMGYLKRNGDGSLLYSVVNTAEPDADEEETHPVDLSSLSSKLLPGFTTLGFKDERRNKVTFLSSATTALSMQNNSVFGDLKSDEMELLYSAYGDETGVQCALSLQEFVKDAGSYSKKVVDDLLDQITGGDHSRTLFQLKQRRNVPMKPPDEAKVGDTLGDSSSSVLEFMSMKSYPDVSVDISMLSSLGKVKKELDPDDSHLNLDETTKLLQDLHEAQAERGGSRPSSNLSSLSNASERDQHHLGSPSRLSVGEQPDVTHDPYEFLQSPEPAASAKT

[3] = biological target: T3, Histone acetyltransferase p300 (Homo sapiens, UniProt Q09472); assay: Inhibition of biotinylated-H4KAc4 binding to human His6-tagged EP300 (A1040 to G1161 residues) expressed in Escherichia coli BL21(DE3) after 2.5 hrs by luminescence-based AlphaScreen assay
[4] = biological target: T4, Transcription initiation factor TFIID subunit 1 (Homo sapiens, UniProt P21675); assay: Inhibition of biotinylated-H4KAc4 binding to human His6-tagged TAF-1 (R1377 to D1503 residues) expressed in Escherichia coli BL21(DE3) after 2.5 hrs by luminescence-based AlphaScreen assay
[5] = biological target: T5, Bromodomain-containing protein 4 (Homo sapiens, UniProt O60885); assay: Inhibition of biotinylated-H4KAc4 binding to human His6-tagged BRD4 bromodomain-1 (N44 to E168 residues) expressed in Escherichia coli BL21(DE3) after 2.5 hrs by luminescence-based AlphaScreen assay
CREB-binding protein [6] = biological target: T6, CREB-binding protein (Homo sapiens, UniProt Q92793); assay: Inhibition of biotinylated-H4KAc4 binding to human His6-tagged CBP (R1081 to G1197 residues) expressed in Escherichia coli BL21(DE3) after 2.5 hrs by luminescence-based AlphaScreen assay
Target sequence in this assay (Q92793 whole entry, the tested form may be a part): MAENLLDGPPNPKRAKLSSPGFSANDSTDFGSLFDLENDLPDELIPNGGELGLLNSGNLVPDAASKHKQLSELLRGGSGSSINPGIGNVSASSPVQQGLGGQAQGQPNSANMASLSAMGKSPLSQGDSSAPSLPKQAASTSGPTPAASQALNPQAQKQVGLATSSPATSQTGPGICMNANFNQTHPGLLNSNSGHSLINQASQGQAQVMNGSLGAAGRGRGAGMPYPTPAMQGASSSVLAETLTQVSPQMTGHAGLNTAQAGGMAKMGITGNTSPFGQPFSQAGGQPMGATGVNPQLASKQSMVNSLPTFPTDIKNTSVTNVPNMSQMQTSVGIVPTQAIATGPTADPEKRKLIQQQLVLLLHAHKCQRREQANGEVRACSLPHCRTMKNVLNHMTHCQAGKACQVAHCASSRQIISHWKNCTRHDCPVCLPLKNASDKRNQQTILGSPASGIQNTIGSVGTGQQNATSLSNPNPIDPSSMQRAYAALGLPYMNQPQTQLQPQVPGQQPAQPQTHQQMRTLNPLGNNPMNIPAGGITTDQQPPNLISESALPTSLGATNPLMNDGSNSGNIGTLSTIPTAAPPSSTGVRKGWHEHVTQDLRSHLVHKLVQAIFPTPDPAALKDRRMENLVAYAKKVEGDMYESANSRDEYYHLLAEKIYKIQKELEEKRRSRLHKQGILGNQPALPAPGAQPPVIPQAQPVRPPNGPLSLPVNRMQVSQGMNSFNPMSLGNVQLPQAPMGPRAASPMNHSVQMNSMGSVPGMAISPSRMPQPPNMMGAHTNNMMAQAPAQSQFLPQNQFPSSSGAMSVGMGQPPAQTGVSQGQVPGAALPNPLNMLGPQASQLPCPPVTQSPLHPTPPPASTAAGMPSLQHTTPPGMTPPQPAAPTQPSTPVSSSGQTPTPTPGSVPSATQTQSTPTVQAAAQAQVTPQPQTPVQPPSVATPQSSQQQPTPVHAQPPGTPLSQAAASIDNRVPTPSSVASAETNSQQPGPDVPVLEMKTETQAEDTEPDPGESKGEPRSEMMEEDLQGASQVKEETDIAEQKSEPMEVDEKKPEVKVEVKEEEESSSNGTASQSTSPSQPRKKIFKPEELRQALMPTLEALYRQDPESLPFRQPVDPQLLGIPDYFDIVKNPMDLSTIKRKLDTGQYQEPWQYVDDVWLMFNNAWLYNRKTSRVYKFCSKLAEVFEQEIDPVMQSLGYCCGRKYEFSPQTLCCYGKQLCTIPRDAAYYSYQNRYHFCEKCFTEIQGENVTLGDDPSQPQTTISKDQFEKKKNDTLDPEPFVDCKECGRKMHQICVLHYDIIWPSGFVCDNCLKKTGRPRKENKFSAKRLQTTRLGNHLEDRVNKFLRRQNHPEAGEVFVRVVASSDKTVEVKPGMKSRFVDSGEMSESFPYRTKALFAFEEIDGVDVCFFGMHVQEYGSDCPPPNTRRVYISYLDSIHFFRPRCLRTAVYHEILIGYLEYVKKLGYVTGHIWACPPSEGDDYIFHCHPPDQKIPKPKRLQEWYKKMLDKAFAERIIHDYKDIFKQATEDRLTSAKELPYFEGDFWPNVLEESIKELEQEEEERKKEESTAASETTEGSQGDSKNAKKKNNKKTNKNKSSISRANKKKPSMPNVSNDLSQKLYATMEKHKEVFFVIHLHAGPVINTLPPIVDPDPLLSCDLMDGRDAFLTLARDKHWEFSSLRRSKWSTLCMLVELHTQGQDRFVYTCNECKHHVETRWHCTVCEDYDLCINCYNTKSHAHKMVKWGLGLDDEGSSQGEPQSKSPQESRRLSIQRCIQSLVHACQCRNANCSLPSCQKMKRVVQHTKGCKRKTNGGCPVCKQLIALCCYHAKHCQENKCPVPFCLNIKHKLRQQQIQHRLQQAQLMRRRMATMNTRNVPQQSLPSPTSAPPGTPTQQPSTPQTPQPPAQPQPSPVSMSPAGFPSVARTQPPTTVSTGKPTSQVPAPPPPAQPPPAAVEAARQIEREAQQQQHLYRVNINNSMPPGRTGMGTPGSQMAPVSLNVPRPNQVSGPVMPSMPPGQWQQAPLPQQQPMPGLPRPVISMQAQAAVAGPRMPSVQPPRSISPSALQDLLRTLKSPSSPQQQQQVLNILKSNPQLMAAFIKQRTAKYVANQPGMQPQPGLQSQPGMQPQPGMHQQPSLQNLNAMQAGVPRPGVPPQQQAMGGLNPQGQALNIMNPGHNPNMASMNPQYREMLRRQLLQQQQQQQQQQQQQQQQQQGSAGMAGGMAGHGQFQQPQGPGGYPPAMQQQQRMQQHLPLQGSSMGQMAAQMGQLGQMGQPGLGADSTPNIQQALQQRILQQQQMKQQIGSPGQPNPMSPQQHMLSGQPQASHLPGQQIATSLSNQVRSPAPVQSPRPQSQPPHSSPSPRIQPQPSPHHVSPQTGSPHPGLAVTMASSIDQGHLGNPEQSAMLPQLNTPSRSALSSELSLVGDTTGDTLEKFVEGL

[7] = biological target: T7, Transcription intermediary factor 1-alpha (Homo sapiens, UniProt O15164); assay: Inhibition of biotinylated-H4KAc4 binding to human His6-tagged TIF-1 (G896 to E1014 residues) expressed in Escherichia coli BL21(DE3) after 2.5 hrs by luminescence-based AlphaScreen assay
T7 sequence (O15164 whole entry): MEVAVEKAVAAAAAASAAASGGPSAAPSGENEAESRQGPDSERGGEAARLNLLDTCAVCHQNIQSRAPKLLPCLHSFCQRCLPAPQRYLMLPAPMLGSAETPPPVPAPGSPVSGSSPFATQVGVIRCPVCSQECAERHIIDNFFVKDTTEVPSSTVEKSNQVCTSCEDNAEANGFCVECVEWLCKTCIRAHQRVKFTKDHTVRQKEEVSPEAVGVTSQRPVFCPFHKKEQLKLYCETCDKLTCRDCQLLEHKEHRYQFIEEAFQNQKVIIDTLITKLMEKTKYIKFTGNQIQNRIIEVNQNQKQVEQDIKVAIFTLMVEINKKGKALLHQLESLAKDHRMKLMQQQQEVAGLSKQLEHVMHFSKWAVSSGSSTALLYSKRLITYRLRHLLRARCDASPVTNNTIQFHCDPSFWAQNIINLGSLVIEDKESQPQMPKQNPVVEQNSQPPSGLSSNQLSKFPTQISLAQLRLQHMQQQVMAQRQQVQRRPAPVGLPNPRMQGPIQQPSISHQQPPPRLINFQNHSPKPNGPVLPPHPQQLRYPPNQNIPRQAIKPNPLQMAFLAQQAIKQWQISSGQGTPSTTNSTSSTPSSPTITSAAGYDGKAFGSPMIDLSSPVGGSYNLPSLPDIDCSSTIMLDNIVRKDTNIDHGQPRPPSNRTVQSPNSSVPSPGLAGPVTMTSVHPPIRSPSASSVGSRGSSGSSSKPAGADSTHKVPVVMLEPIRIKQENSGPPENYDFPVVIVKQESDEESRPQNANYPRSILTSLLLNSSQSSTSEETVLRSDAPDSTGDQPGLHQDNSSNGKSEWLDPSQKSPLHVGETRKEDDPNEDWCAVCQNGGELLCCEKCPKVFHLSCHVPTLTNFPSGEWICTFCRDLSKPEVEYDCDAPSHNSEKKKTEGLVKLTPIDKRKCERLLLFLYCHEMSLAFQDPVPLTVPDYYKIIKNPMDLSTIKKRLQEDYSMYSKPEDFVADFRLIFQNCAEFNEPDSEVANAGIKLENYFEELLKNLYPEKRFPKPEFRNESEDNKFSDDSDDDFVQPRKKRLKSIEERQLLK

[8] = biological target: T8, Bromodomain adjacent to zinc finger domain protein 2B (Homo sapiens, UniProt Q9UIF8); assay: Inhibition of biotinylated-H4KAc4 binding to human His6-tagged BAZ2B (S1858 to S1972 residues) expressed in Escherichia coli BL21(DE3) after 2.5 hrs by luminescence-based AlphaScreen assay
T8 sequence (Q9UIF8 whole entry, the tested form may be a part): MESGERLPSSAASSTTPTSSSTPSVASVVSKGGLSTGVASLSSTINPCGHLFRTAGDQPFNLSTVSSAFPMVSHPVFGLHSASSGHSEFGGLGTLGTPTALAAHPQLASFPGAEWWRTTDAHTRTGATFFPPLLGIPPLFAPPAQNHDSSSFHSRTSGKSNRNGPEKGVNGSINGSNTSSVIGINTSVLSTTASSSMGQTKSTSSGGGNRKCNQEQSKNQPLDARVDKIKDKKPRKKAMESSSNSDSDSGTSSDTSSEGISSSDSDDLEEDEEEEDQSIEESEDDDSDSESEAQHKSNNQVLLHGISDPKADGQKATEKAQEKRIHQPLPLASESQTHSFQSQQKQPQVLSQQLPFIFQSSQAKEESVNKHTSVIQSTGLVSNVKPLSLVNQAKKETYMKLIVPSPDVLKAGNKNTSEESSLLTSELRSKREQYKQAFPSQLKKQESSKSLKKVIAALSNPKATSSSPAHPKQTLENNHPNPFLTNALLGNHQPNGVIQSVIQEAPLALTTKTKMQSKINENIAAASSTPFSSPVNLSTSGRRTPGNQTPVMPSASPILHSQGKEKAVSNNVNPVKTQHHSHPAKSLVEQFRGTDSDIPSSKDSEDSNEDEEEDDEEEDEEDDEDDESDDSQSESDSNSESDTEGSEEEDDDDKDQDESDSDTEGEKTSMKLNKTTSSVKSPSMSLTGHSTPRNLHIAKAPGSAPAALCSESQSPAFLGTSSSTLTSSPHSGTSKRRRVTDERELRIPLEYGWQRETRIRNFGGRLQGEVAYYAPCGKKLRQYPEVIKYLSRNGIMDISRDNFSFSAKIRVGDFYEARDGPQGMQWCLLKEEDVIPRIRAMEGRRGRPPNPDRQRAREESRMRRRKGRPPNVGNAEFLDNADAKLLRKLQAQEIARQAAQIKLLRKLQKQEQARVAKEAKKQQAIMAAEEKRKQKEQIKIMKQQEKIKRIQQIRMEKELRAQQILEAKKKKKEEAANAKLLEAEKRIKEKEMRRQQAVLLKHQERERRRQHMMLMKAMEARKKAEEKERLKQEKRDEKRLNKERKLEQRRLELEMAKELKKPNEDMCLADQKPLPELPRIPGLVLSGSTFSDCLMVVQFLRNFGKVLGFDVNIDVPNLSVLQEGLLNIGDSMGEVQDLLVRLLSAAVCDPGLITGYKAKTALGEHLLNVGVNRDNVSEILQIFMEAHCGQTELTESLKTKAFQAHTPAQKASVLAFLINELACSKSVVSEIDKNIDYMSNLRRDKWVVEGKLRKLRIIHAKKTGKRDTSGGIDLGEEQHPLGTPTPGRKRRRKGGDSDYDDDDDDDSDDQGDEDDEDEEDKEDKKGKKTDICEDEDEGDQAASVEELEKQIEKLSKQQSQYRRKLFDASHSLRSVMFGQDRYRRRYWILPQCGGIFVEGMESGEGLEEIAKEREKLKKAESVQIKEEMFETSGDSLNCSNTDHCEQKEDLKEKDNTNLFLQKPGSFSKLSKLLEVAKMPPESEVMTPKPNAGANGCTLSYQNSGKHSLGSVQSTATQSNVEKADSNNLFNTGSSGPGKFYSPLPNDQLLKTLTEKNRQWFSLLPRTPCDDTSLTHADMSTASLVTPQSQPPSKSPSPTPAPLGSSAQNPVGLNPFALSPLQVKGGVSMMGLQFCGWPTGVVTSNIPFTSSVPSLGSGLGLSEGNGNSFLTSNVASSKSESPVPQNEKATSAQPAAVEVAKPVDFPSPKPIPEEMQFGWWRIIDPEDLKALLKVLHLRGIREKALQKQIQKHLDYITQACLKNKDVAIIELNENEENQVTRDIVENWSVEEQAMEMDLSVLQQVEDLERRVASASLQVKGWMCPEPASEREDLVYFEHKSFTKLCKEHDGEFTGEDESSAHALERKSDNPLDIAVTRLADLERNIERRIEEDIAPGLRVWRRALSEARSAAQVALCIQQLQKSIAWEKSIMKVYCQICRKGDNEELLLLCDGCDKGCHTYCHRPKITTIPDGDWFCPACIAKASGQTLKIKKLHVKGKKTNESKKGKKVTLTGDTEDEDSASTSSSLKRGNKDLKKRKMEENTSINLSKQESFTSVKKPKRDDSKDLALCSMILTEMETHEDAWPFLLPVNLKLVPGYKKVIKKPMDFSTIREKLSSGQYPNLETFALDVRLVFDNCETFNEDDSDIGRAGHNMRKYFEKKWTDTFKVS

[9] = biological target: T8, Bromodomain adjacent to zinc finger domain protein 2B; assay: Inhibition of biotinylated-H4KAc4 binding to human His6-tagged BAZ2B (S1858 to S1972 residues) expressed in Escherichia coli BL21(DE3) at 50 uM after 2.5 hrs by luminescence-based AlphaScreen assay relative to control
CWR22R [10] = tested on: CWR22R
Description: (§1) Antiproliferative activity against human 22Rv1 cells after 72 hrs by Cell-Titer Glo assay

[11] = biological target: T5, Bromodomain-containing protein 4; assay: Inhibition of biotinylated-H4KAc4 binding to human His6-tagged BRD4 bromodomain-1 (N44 to E168 residues) expressed in Escherichia coli BL21(DE3) at 50 uM after 2.5 hrs by luminescence-based AlphaScreen assay relative to control
LNCaP [12] = assay: Antiproliferative activity against human LNCAP cells after 72 hrs by Cell-Titer Glo assay; format: functional, cell-based
CWR22R [13] = assay: cells; details: Homo sapiens, 22Rv1, 72 h
Description: as §1

LNCaP [14] = assay: Potency index, ratio of enzalutamide IC50 to compound IC50 for antiproliferative activity against human LNCAP cells; format: functional
CWR22R [15] = assay: Potency index, ratio of enzalutamide IC50 to compound IC50 for antiproliferative activity against human 22Rv1 cells; format: functional
[16] = biological target: T1, Histone acetyltransferase KAT2B; assay: Binding affinity to human His6-tagged PCAF (G715 to D831 residues) expressed in Escherichia coli BL21(DE3) assessed as change in melting temperature at 200 uM after 30 mins by SYPRO orange dye based fluorescence assay
[17] = biological target: T4, Transcription initiation factor TFIID subunit 1; assay: Binding affinity to human His6-tagged TAF-1 (R1377 to D1503 residues) expressed in Escherichia coli BL21(DE3) assessed as change in melting temperature at 200 uM after 30 mins by SYPRO orange dye based fluorescence assay
[18] = biological target: T3, Histone acetyltransferase p300; assay: Binding affinity to human His6-tagged EP300 (A1040 to G1161 residues) expressed in Escherichia coli BL21(DE3) assessed as change in melting temperature at 200 uM after 30 mins by SYPRO orange dye based fluorescence assay
[19] = biological target: Bromodomain-containing protein 9 (Homo sapiens) (UniProt Q9H8M2); assay: Binding affinity to human His6-tagged BRD9 (L14 to Q134 residues) expressed in Escherichia coli BL21(DE3) assessed as change in melting temperature at 200 uM after 30 mins by SYPRO orange dye based fluorescence assay
CWR22R [20] = assay: Anticlonogenic activity against human 22Rv1 cells after 14 days by crystal violet staining based assay; format: functional, cell-based
CREB-binding protein [21] = biological target: T6, CREB-binding protein; assay: Binding affinity to human His6-tagged CBP (R1081 to G1197 residues) expressed in Escherichia coli BL21(DE3) assessed as change in melting temperature at 200 uM after 30 mins by SYPRO orange dye based fluorescence assay
[22] = biological target: T8, Bromodomain adjacent to zinc finger domain protein 2B; assay: Binding affinity to human His6-tagged BAZ2B (S1858 to S1972 residues) expressed in Escherichia coli BL21(DE3) assessed as change in melting temperature at 200 uM after 30 mins by SYPRO orange dye based fluorescence assay
[23] = biological target: Transcription intermediary factor 1-alpha (Homo sapiens) (UniProt O15164); assay: Binding affinity to human His6-tagged TIF-1 (G896 to E1014 residues) expressed in Escherichia coli BL21(DE3) assessed as change in melting temperature at 200 uM after 30 mins by SYPRO orange dye based fluorescence assay
[24] = biological target: T5, Bromodomain-containing protein 4; assay: Binding affinity to human His6-tagged BRD4 bromodomain-1 (N44 to E168 residues) expressed in Escherichia coli BL21(DE3) assessed as change in melting temperature at 200 uM after 30 mins by SYPRO orange dye based fluorescence assay
LNCaP C4-2B [25] = assay: Anticlonogenic activity against human C4-2B cells after 14 days by crystal violet staining based assay; format: functional, cell-based
CWR22R [26] = assay: Anticlonogenic activity against human 22Rv1 cells at 4 uM after 14 days by crystal violet staining based assay relative to control; format: functional
LNCaP C4-2B [27] = assay: Anticlonogenic activity against human C4-2B cells at 4 uM after 14 days by crystal violet staining based assay relative to control; format: functional
[28] = Homo sapiens, LNCaP, 72 h, read-out: IC50

IC50 [1] | IC50 [2] | IC50 [3] | IC50 [4] | IC50 [5] | IC50 (CREB-binding protein [6]) | IC50 [7] | IC50 [8] | IC50 (CWR22R [10]) | IC50 (LNCaP [12]; lncap) | Compound | Activity (CWR22R [20]) | Activity (LNCaP C4-2B [25]) | other results
> 20 µM | > 20 µM | 0.97 µM | > 20 µM | 2.19 µM | 0.65 µM | 10.4 µM | 1.69 µM |  |  | CC(=O)n1cc(C(=O)Nc2cc(C(=O)O)cc(-c3ccco3)c2)c2ccccc21 |  |  | 
> 20 µM | > 20 µM | 2.51 µM | > 20 µM | > 20 µM | 1 µM | > 20 µM | > 20 µM |  |  | CC(=O)n1cc(C(=O)Nc2cc(COC3CCCCO3)cc(C(=O)O)c2)c2ccccc21 (centres undefined) |  |  | 
> 20 µM | > 20 µM |  | > 20 µM | > 20 µM |  | > 20 µM | > 20 µM | Not Active | Not Active | COc1ccc(CCc2nc3cc(-c4c(C)noc4C)ccc3n2C[C@H](C)N2CCOCC2)cc1Cl |  |  | inhibition [9]: 41%; inhibition [11]: 62%
 |  |  |  |  |  |  |  |  |  | COc1ccc2c(c1)c(C(=O)Nc1cc(C(=O)OC(C)(C)C)cc(-c3ccco3)c1)cn2C(C)=O |  |  | IC50 (CWR22R [13]): 4.31 µM; IC50 (LNCaP [12]; [28]): 1.76 µM; Ratio IC50 (LNCaP [14]): 17; Ratio IC50 (CWR22R [15]): 17
> 20 µM | > 20 µM | 0.049 µM | > 20 µM | > 20 µM | 0.037 µM | > 20 µM | > 20 µM | Not Active | Not Active | COc1ccc2c(c1)c(C(=O)Nc1cc(C(=O)O)cc(-c3cnn(C)c3)c1F)cn2C(C)=O | inactive | inactive | ΔTm [16]: -0.3 °C; ΔTm [17]: 0.6 °C; ΔTm [18]: 7.2 °C; ΔTm [19]: 0.9 °C; ΔTm (CREB-binding protein [21]): 8.7 °C; ΔTm [22]: 0.3 °C; ΔTm [23]: 0 °C; ΔTm [24]: 1.2 °C
> 20 µM | > 20 µM | 4.45 µM | > 20 µM | > 20 µM | 0.77 µM | > 20 µM | > 20 µM |  |  | CC(=O)n1cc(C(=O)Nc2cc(C(=O)O)ccc2F)c2ccccc21 |  |  | 
 |  |  |  |  |  |  |  |  |  | COc1ccc2c(c1)c(C(=O)Nc1cc(C(=O)OC(C)(C)C)cc(-c3cnn(C)c3)c1)cn2C(C)=O | Dose-dependent effect | Dose-dependent effect | Activity (CWR22R [26]): <10%; IC50 (CWR22R [13]): 2.22 µM; IC50 (LNCaP [12]; [28]): 1.28 µM; Activity (LNCaP C4-2B [27]): <10%; Ratio IC50 (LNCaP [14]): 17; Ratio IC50 (CWR22R [15]): 17
> 20 µM | > 20 µM | 5.55 µM | > 20 µM | > 20 µM | 1.69 µM | > 20 µM | > 20 µM |  |  | CC(=O)n1cc(C(=O)Nc2cccc(C(=O)O)c2)c2ccccc21 |  |  | 
> 20 µM | > 20 µM | 1.78 µM | > 20 µM | > 20 µM | 0.14 µM | > 20 µM | 12.2 µM | Not Active | Not Active | COc1ccc2c(c1)c(C(=O)Nc1cc(C(=O)O)cc(-c3ccco3)c1)cn2C(C)=O |  |  | 
> 20 µM | > 20 µM | 0.51 µM | > 20 µM | > 20 µM | 0.16 µM | > 20 µM | > 20 µM | Not Active | Not Active | COc1ccc2c(c1)c(C(=O)Nc1cc(C(=O)O)cc(-c3cnn(C)c3)c1)cn2C(C)=O | inactive | inactive | ΔTm [16]: -1.5 °C; ΔTm [17]: 0.9 °C; ΔTm [18]: 5.7 °C; ΔTm [19]: -0.9 °C; ΔTm (CREB-binding protein [21]): 5.7 °C; ΔTm [22]: 1.5 °C; ΔTm [23]: -0.3 °C; ΔTm [24]: 1.1 °C
